Measured values reported in patent US10478437B2, “Combination therapy to enhance the anticancer efficacy of platinum drugs” (University of Pittsburgh-of the Commonwealth System of …, priority 2014, dated 2019).

System: cisplatin-resistant ovarian cancer cell line A2780cis
Assay: Caspase-3/7 activity assay (apoptotic cell death), compound alone or with cisplatin
Type: cell-based, human
Settings: for caspase-3/7 activity (Lum), compound with cisplatin / caspase-3/7 activity (Lum), compound alone: 20 h; for caspase-3/7 activity (Lum), compound alone: compound 20 μM; for activity in the screen (Caspase-3/7 activity and microscopic examination), active / inactive: alone or in the presence of cisplatin, in words
Experimental: Cell proliferation was determined using a CyQUANT Direct Cell Proliferation Assay kit (Invitrogen), the activity of caspase-3/7 was measured using a Caspase-Glo 3/7 Assay Systems (Promega, Madison, Wis.), and the MTS calorimetric survival assay was performed using the CellTiter 96 AQueous One Solution Cell Proliferation Assay kit (Promega, Madison, Wis.), according to the manufacturer's instructions. The survival fractions were calculated after setting untreated control cells at 100%. The data were plotted and curve fitted using GraphPad Prism software. To quantify the number of cells with active caspase-3, cells were fixed with 4% paraformaldehyde (Electron microscopy sciences, Hatfield, Pa.), stained with Alexa Fluor-488 conjugated antibody against cleaved caspase-3 (Asp175) (Cell Signaling Technology, Danvers, Mass.) followed by flow cytometry. An FITC Annexin V Apoptosis Detection Kit (BD PharMingen, San Diego, Calif.) was used to quantify apoptotic cells, according to the manufacturer's instructions.
A Caspase-3/7 assay was performed to evaluate the activity of the 36 compounds of FIG. 1 in vitro in the cisplatin-resistant ovarian cancer cell line, A2780cis, alone or in the presence of cisplatin. A microscopic examination of apoptotic morphologic changes was also carried out right before the measurement of Caspase-3/7 activity, in order to confirm that the data on the activation of the Caspase-3/7 following treatment is consistent with morphological change and reflects cell death.

[1] = Table 1, compound 20 μM with 20 μM cisplatin
[2] = Table 1, mean ± S.D. of triplicates
[3] = Table 3, compound 20 μM with 20 μM of cisplatin

SMILES | caspase-3/7 activity (Lum), compound with cisplatin [1] [Lum] | caspase-3/7 activity (Lum), compound alone [2] [Lum] | activity in the screen (Caspase-3/7 activity and microscopic examination), active / inactive | caspase-3/7 activity (Lum), compound with cisplatin [3] [Lum] | caspase-3/7 activity (Lum), compound alone (Table 3) [Lum]
CC1CCc2c(sc3[nH]c(=S)n(Cc4ccccc4)c(=O)c23)C1 (centres unmarked) [Compound 1-2] | 25 ± 3 | 12 ± 1 | inactive | – | –
CC(C)(C)C(=O)NC(=S)Nc1sc2c(c1C(N)=O)CCCC2 [Compound 2-20] | – | – | – | 15 ± 2 | 8 ± 1
CC1CCN(CCCn2c(=S)[nH]c3ccccc3c2=O)CC1 [Compound 1-12] | 23 ± 3 | 10 ± 1 | – | – | –
CC(C)(C)C1CCc2c(sc3[nH]c(=S)n(Cc4ccccc4)c(=O)c23)C1 (centres unmarked) [Compound 1-27] | 40 ± 5 | 23 ± 2 | inactive | – | –
O=C(NC(=S)NCCc1ccccc1)C1CCCCC1 [Compound 2-28] | – | – | – | 18 ± 2 | 7 ± 1
O=C(CCn1c(=S)[nH]c2ccccc2c1=O)NCC1(c2ccccc2)CCCC1 [Compound 1-13] | 35 ± 3 | 14 ± 1 | – | – | –
CCN(CC)CCn1c(=O)[nH]c2ccccc2c1=O [Compound 1-31] | 26 ± 4 | 12 ± 1 | – | – | –
CN(C)CCn1c(=S)[nH]c2ccc(Cl)cc2c1=O [Compound 1-5] | 32 ± 1 | 13 ± 1 | – | – | –
O=C(CCn1c(=S)[nH]c2ccccc2c1=O)N1CCOCC1 [Compound 1-9] | 23 ± 1 | 13 ± 1 | – | – | –
O=C(NC(=S)Nc1ccccc1F)c1ccco1 [Compound 2-21] | – | – | – | 25 ± 1 | 8 ± 1
Cc1cccc2c(=O)n(CCN(C)C)c(=S)[nH]c12 [Compound 1-7] | 20 ± 3 | 12 ± 2 | – | – | –
O=C(NC(=S)NCc1ccccc1)C1CCCCC1 [Compound 2-30] | – | – | – | 20 ± 5 | 6 ± 0
Cc1ccc(C(=O)NC(=S)Nc2ccc(C)cn2)cc1 [Compound 2-24] | – | – | inactive | 19 ± 5 | 7 ± 1
Nn1c(=S)[nH]c2ccccc2c1=O [Compound 1-28] | 22 ± 2 | 15 ± 1 | – | – | –
O=C(NC(=S)NCCN1CCOCC1)c1ccc(Cl)cc1 [Compound 2-18] | – | – | – | 17 ± 1 | 9 ± 1
O=c1[nH]c2ccccc2c(=O)n1CCCN1CCOCC1 [Compound 1-32] | 20 ± 1 | 13 ± 1 | – | – | –
Cc1cccnc1NC(=S)NC(=O)c1cccs1 [Compound 2-2] | – | – | – | 25 ± 1 | 9 ± 1
COc1ccc(C=C2C(=O)NC(=S)NC2=O)c(OC)c1 [Compound 2-6] | – | – | – | 22 ± 1 | 7 ± 1
COCCCn1c(=S)[nH]c2cc(C(=O)Nc3ccc(F)c(F)c3)ccc2c1=O [Compound 1-16] | 18 ± 3 | 10 ± 1 | – | – | –
CC(C)CC(NC(=O)Cn1c(=O)[nH]c(=O)c2ccccc21)c1ccccc1 (centres unmarked) [Compound 1-25] | 33 ± 2 | 15 ± 1 | – | – | –
O=C(NC(=S)NCC1CCCO1)c1ccccc1 (centres unmarked) [Compound 2-9] | – | – | – | 20 ± 2 | 8 ± 1

SMILES | caspase-3/7 activity (Lum), compound with cisplatin [1] [Lum] | caspase-3/7 activity (Lum), compound alone [2] [Lum] | activity in the screen (Caspase-3/7 activity and microscopic examination), active / inactive | caspase-3/7 activity (Lum), compound with cisplatin [3] [Lum] | caspase-3/7 activity (Lum), compound alone (Table 3) [Lum]
CCCCn1c(=S)[nH]c2cc(C(=O)OC)ccc2c1=O [Compound 1-36] | 47 ± 3 | 16 ± 2 | – | – | –
O=c1[nH]c2ccccc2c(=O)n1CCc1ccccc1 [Compound 1-33] | 16 ± 1 | 10 ± 1 | – | – | –
O=C(CNC(=S)NC(=O)c1ccc(F)cc1)c1ccccc1 [Compound 2-22] | – | – | – | 26 ± 2 | 9 ± 1
Cc1ccc(-c2csc3[nH]c(=S)n(-c4ccccc4)c(=O)c23)o1 [Compound 1-1] | 28 ± 1 | 12 ± 1 | inactive | – | –
O=C(CCCCCn1c(=S)[nH]c2ccccc2c1=O)NCc1ccc2c(c1)OCO2 [Compound 1-14] | 22 ± 2 | 11 ± 1 | – | – | –
COCCCNC(=S)NC(=O)c1ccc(F)cc1 [Compound 2-15] | – | – | – | 18 ± 3 | 8 ± 1
CC(C)C(=O)NC(=S)Nc1ccc(F)c(Cl)c1 [Compound 2-11] | – | – | – | 17 ± 2 | 9 ± 1
Cc1[nH]c(=S)[nH]c(=O)c1CCC(=O)NCCc1c[nH]c2ccccc12 [Compound 1-11] | 18 ± 2 | 12 ± 1 | – | – | –
O=C(NC(=S)NC1CCS(=O)(=O)C1)c1ccc(F)cc1 (centres unmarked) [Compound 2-13] | – | – | – | 20 ± 3 | 8 ± 1
C=CCn1c(=S)[nH]c2scc(-c3ccc(C)c(C)c3)c2c1=O [Compound 1-3] | 28 ± 2 | 12 ± 1 | inactive | – | –
N#Cc1c(-c2ccc(Br)cc2)[nH]c(=S)[nH]c1=O [Compound 1-26] | 26 ± 1 | 14 ± 3 | – | – | –
COc1ccc(C(C)=C2C(=O)NC(=S)NC2=O)cc1OC [Compound 2-26] | – | – | – | 21 ± 4 | 6 ± 0
COc1ccccc1Cn1c(=S)[nH]c2ccccc2c1=O [Compound 1-20] | 39 ± 3 | 13 ± 1 | – | – | –
O=C(NC(=S)Nc1ccccc1N1CCCC1)c1cccs1 [Compound 2-4] | – | – | – | 18 ± 1 | 8 ± 1
O=C(CCn1c(=O)[nH]c2ccccc2c1=O)NCCCOc1ccc(F)cc1 [Compound 1-18] | 19 ± 3 | 12 ± 1 | – | – | –
CN(Cc1ccc(Cl)c(Cl)c1)C(=O)CCn1c(=O)[nH]c(=O)c2ccccc21 [Compound 1-23] | 27 ± 1 | 15 ± 1 | – | – | –
C=CCn1c(=S)[nH]c2cc(C(=O)Nc3cc(OC)c(OC)c(OC)c3)ccc2c1=O [Compound 1-22] | 25 ± 2 | 16 ± 1 | – | – | –
NC(=O)c1ccccc1NC(=S)NC(=O)c1ccco1 [Compound 2-29] | – | – | – | 19 ± 3 | 7 ± 1
O=C(NC(=S)Nc1ccccc1)c1ccc(Br)o1 [Compound 2-8] | – | – | – | 20 ± 2 | 7 ± 2
Cc1c(NC(=S)NC(=O)C(C)(C)C)c(=O)n(-c2ccccc2)n1C [Compound 2-10] | – | – | – | 20 ± 2 | 7 ± 2
O=C(NC(=S)Nc1ccc(F)c(Cl)c1)C1CCCCC1 [Compound 2-16] | – | – | – | 17 ± 1 | 8 ± 1
